Laboratory results taken from article PMC9551036, “A selective and orally bioavailable VHL-recruiting PROTAC achieves SMARCA2 degradation in vivo” (Nature Communications, 2022).
Where “and” joins values, the source holds several entries; their conditions need not be identical. Identical values can stand only once. Like-named read-outs stand apart in the source and are kept apart here.

Tests used:
[1] = target: T1, (Homo sapiens, UniProt P51532); assay: TR-FRET ternary complex affinity and cooperativity, SMARCA4; type: binding
T1 construct: P51532, residues 1448–1569 with additional N-terminal SM residues; GST (TEV site) (N); His6 (TEV site) (N, cleaved yes); made in house; host or cells: SMARCA4^BD: Escherichia coli BL21(DE3)
T1 sequence (P51532 1448-1569): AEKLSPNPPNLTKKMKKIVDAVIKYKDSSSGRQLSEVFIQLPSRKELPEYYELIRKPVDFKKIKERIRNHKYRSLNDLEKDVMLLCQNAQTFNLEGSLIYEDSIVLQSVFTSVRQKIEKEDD

Caco-2 cell monolayer = assay: Bidirectional permeability measurement in Caco-2 cells; type: in vitro ADME
Summary of the method: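 Compound quantified by LC-MS/MS in samples taken over up to 2 h across 14–21-day Caco-2 monolayers, after 24 h preincubation with 1 µM compound. Runs done without and with 5 µM zosuquidar to probe P-gp. Efflux ratio is the quotient of duplicate-mean Papp,BA over Papp,AB.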

SMARCA2 = SMARCA2 (Homo sapiens, UniProt P51531); assay: SMARCA2 capillary electrophoresis protein assay in RKO cells; type: cell-based; design: endogenous in cells; host or cells: RKO, NCI-H1568, A549, HCT116, LU99, HCC-364, HCT-15, HCC4006, SK-N-AS; conditions: mean ± SD; for Dmax: RKO
Chain of SMARCA2 (P51531 whole entry): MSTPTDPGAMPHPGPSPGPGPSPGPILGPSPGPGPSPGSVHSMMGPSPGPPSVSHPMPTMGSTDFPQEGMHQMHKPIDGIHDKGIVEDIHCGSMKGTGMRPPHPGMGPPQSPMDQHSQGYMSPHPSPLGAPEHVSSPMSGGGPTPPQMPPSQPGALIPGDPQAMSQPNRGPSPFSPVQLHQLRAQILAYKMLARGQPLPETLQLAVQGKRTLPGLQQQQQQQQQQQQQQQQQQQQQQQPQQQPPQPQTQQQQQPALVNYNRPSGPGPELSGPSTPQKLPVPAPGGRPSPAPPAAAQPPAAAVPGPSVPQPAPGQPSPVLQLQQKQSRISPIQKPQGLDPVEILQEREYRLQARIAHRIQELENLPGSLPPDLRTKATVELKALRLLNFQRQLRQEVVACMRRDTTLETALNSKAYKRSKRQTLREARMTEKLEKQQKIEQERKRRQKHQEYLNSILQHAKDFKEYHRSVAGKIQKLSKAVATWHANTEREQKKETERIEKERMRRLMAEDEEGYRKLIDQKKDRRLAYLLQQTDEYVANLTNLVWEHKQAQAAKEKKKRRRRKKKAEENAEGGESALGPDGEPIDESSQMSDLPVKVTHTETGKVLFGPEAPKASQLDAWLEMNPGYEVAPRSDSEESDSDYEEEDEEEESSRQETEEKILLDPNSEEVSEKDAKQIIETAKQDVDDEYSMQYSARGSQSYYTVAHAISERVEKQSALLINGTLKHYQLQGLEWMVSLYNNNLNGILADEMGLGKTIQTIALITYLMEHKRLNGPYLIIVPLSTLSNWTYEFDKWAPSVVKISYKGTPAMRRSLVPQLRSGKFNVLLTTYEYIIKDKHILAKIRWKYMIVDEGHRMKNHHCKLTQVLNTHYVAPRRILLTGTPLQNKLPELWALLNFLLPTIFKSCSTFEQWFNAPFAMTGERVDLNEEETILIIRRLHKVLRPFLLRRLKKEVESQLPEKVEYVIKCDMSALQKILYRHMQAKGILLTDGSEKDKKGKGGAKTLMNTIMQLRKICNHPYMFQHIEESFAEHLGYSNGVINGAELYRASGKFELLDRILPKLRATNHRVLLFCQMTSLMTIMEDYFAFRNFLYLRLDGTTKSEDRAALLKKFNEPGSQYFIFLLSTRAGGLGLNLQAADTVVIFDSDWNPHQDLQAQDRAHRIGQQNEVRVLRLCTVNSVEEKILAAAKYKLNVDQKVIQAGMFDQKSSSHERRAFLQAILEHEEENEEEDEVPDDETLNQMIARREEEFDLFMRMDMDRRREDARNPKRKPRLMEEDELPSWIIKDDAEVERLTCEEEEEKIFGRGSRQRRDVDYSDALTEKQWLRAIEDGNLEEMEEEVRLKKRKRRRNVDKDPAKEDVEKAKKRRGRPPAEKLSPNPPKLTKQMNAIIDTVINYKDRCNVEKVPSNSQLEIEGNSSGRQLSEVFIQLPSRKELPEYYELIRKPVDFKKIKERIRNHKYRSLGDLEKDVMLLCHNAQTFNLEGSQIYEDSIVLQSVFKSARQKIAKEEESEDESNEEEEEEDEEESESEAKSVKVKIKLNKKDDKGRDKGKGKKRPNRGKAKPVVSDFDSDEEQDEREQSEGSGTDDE
Procedure: 130,000–200,000 cells were seeded in 24-well plates and incubated until settled down or overnight. Compounds were dissolved in DMSO and added to cells in indicated concentrations using a digital dispenser following an optional media change. […] For SMARCA2/4 half-life determination, 150,000 or 200,000 cells were seeded in 24-well plates. […] For SMARCA2/4 re-synthesis measurements, 200,000 cells were seeded in 24-well plates. […] Medium was removed, cells were washed with PBS and lysed with 80 µl Lysis Buffer (MSD Tris Lysis Buffer (#R60TX-2) + Halt Inhibitor Cocktail (100x) + Benzonase 0.5 µL/ml). Samples were frozen at −80 °C and thawed at room temperature before use. Samples were transferred to a V-bottom plate and insoluble debris was pelleted by centrifugation for 5 min at maximum speed. The supernatant was transferred to a fresh plate. Master Mix and Ladder were prepared according to manufacturer’s instructions for 12–230 kDa Wes Separation Module, 8 × 25 capillary cartridges, Protein Simple #SM-W004 with Anti-Rabbit Detection Module for Wes, Peggy Sue or Sally Sue, Protein Simple #DM-001. 4.8 µl lysate were mixed with 1.2 µl Master Mix to achieve a protein concentration of ~0.5 µg/µl. […] Wes plates were prepared and run according to manufacturer’s instructions. Proteins were quantified with accompanying Compass Software. SMARCA2/4 protein levels were normalised to GAPDH. […] Where applicable, curves were fitted using a 4-parametric logistic model.

[2] = target: VCB: PROTAC: SMARCA4^BD ternary complex (Homo sapiens, UniProt P40337+P51532); assay: TR-FRET ternary complex affinity and cooperativity, SMARCA4; type: binding; design: P51532, residues 1448–1569 with additional N-terminal SM residues; GST (TEV site) (N); His6 (TEV site) (N, cleaved yes); made in house; host or cells: SMARCA4^BD: Escherichia coli BL21(DE3)
Chain of VCB: PROTAC: SMARCA4^BD ternary complex (P51532 1448-1569): as the sequence (P51532 1448-1569) above
Chain of VCB: PROTAC: SMARCA4^BD ternary complex (P40337 54-213): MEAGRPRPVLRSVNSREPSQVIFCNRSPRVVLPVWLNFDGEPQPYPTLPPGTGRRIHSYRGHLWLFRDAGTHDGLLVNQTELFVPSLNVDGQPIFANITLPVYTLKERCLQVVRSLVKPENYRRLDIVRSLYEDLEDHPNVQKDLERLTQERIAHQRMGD
Chain of VCB: PROTAC: SMARCA4^BD ternary complex (Q15369 17-112 partner): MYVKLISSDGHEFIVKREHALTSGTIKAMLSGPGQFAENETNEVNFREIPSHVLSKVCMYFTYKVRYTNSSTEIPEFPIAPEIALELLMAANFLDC
Chain of VCB: PROTAC: SMARCA4^BD ternary complex (Q15370 1-104 partner): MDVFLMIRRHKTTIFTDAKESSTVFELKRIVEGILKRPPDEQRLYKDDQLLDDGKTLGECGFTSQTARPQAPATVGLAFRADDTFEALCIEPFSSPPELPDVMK

[3] = target: VCB: PROTAC: SMARCA2^BD ternary complex (Homo sapiens, UniProt P40337+P51531); assay: TR-FRET ternary complex affinity and cooperativity, SMARCA2; type: binding; design: P51531-2, residues 1373-1493 with additional N-terminal SM residues; GST (TEV site) (N); His6 (TEV site) (N, cleaved yes); made in house; host or cells: SMARCA2^BD: Escherichia coli BL21(DE3)
Chain of VCB: PROTAC: SMARCA2^BD ternary complex (P51531 with tags, fused parts or gaps isoform P51531-2): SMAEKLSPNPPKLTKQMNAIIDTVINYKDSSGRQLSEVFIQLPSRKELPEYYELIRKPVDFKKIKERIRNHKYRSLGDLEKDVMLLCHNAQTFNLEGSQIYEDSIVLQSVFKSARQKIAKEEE
Chain of VCB: PROTAC: SMARCA2^BD ternary complex (P40337 54-213): as the sequence (P40337 54-213) above
Chain of VCB: PROTAC: SMARCA2^BD ternary complex (Q15369 17-112 partner): as the sequence (Q15369 17-112 partner) above
Chain of VCB: PROTAC: SMARCA2^BD ternary complex (Q15370 1-104 partner): as the sequence (Q15370 1-104 partner) above

[4] = TR-FRET competition for SMARCA4BD, without VCB, mean ± SD, read-out: TR-FRET SMARCA4BD EC50
[5] = binary, PROTAC alone, individual replicates, read-out: SMARCA4 BD EC50
[6] = PROTAC + VCB, individual replicates, read-out: Ternary SMARCA4 BD EC50 (PROTAC + VCB)
[7] = TR-FRET competition for SMARCA4BD, + VCB, mean ± SD, read-out: TR-FRET Ternary SMARCA4BD EC50 (PROTAC + VCB)
[8] = PROTAC + VCB, individual replicates, read-out: Ternary SMARCA2 BD EC50 (PROTAC + VCB)
[9] = TR-FRET competition for SMARCA2BD, + VCB, mean ± SD, read-out: TR-FRET Ternary SMARCA2BD EC50 (PROTAC + VCB)

Structure (SMILES) | EC50 [1, 4] [nM] | EC50 [1, 5] | Caco-2 Pab (Caco-2 cell monolayer; Caco-2) | Caco-2 Pab (Caco-2 cell monolayer; Caco-2, a to b) | DC50 (SMARCA2; RKO (4 h)) [nM] | DC50 (SMARCA2; RKO (18 h)) [nM] | EC50 [2, 6] | EC50 [2, 7] [nM] | EC50 [3, 8] | EC50 [3, 9] [nM] | SMARCA2 Dmax (SMARCA2; RKO (18 h)) [%] | SMARCA2 Dmax (SMARCA2; RKO (4 h)) [%] | Caco-2 Efflux ratio (Caco-2 cell monolayer; Caco-2) | Dmax (SMARCA2; RKO (4 h)) [%] | Dmax (SMARCA2; RKO (18 h)) [%] | Modified Caco-2 Efflux ratio (Caco-2 cell monolayer; Modified Caco-2) | Modified Caco-2 Pab (Caco-2 cell monolayer; Modified Caco-2) | Modified Caco-2 Pab + PGPi (Zosuquidar) (Caco-2 cell monolayer; Modified Caco-2, a to b, + PGPi (Zosuquidar)) | Modified Caco-2 Pba + PGPi (Zosuquidar) (Caco-2 cell monolayer; Modified Caco-2, b to a, + PGPi (Zosuquidar)) [×10⁻⁶ cm/s]
Cc1ncsc1-c1ccc(CNC(=O)[C@@H]2C[C@@H](O)CN2C(=O)[C@@H](NC(=O)C2(F)CC2)C(C)(C)C)c(OCCN2CCC(c3ccc4c(c3)n(C3CCCC3)c3nc(=O)c5c(Br)cccc5n43)CC2)c1 [compound 20] | 120 ± 17 | 101 nM and 114 nM and 130 nM and 140 nM | <0.4 10-6 cm/s | <4.04e-07 cm/s | > 25000 | > 25000 | 312 nM and 310 nM and 294 nM and 321 nM | 309 ± 11 | 140 nM and 137 nM and 122 nM and 109 nM and 217 nM | 141 ± 42 |  |  |  |  |  |  |  |  | 
Cc1ncsc1-c1ccc(CNC(=O)[C@@H]2C[C@@H](O)CN2C(=O)[C@@H](NC(=O)C2(F)CC2)C(C)(C)C)c(OCCOCCOCCN2CCC(c3ccc4c(c3)n(C3CCCC3)c3nc(=O)c5c(Br)cccc5n43)CC2)c1 [compound 21] | 520 ± 73 | 443 nM and 585 nM and 542 nM | <0.3 10-6 cm/s | <2.83e-07 cm/s | > 25000 | 106 ± 38 | 119 nM and 144 nM and 128 nM | 130 ± 13 | 138 nM and 122 nM and 143 nM | 134 ± 11 | 67± 8 |  |  |  |  |  |  |  | 
Cc1ncsc1-c1ccc(CNC(=O)[C@@H]2C[C@@H](O)CN2C(=O)[C@@H](NC(=O)C2(F)CC2)C(C)(C)C)c(OCCOCCOCCOCCN2CCC(c3ccc4c(c3)n(C3CCCC3)c3nc(=O)c5c(Br)cccc5n43)CC2)c1 [compound 22] | 813 ± 126 | 659 nM and 965 nM and 837 nM and 819 nM | <0.3 10-6 cm/s | <2.78e-07 cm/s | 175 ± 165 | 148 ± 97 | 73.1 nM and 97.3 nM and 87.2 nM and 102 nM | 89 ± 13 | 95.1 nM and 86.8 nM and 90.2 nM and 144 nM | 102 ± 27 | 75 ± 8 | 71 ± 25 |  |  |  |  |  |  | 
Cc1ncsc1-c1ccc(CNC(=O)[C@@H]2C[C@@H](O)CN2C(=O)[C@@H](NC(=O)C2(F)CC2)C(C)(C)C)c(OCCCCN2CCC(c3ccc4c(c3)n(C3CCCC3)c3nc(=O)c5c(Br)cccc5n43)CC2)c1 [compound 23] | 174 ± 21 | 148 nM and 197 nM and 173 nM and 183 nM | 0.4 10-6 cm/s | 4.01e-07 cm/s | > 25000 | 39 ± 10 | 165 nM and 215 nM and 180 nM and 280 nM | 206 ± 51 | 115 nM and 127 nM and 132 nM and 372 nM | 164 ± 124 | 37 ± 5 |  | 26.136 and 26 |  |  |  |  |  | 
Cc1ncsc1-c1ccc([C@H](CCCCN2CCC(c3ccc4c(c3)n(C3CCCC3)c3nc(=O)c5c(Br)cccc5n43)CC2)NC(=O)[C@@H]2C[C@@H](O)CN2C(=O)[C@@H](NC(=O)C2(F)CC2)C(C)(C)C)cc1 [compound 25] | 182 ± 57 | 134 nM and 202 nM and 155 nM and 262 nM | <4 10-6 cm/s | <4.3e-06 cm/s | 3 ± 1 | 3 ± 1 | 69.7 nM and 82.3 nM and 75.3 nM and 90.7 nM | 79 ± 9 | 208 nM and 27.9 nM and 62.3 nM and 29 nM and 29.1 nM and 33.2 nM and 38.8 nM and 39.9 nM and 50.6 nM and 51.7 nM and 46 nM and 34.5 nM and 27.1 nM | 43 ± 48 | 80 ± 6 | 66 ± 5 |  |  |  |  |  |  | 
Cc1ncsc1-c1ccc([C@H](COCCN2CCC(c3ccc4c(c3)n(C3CCCC3)c3nc(=O)c5c(Br)cccc5n43)CC2)NC(=O)[C@@H]2C[C@@H](O)CN2C(=O)[C@@H](NC(=O)C2(N(C)C)CC2)C(C)(C)C)cc1 [compound 26] | 149 ± 41 | 136 nM and 180 nM and 162 nM and 117 nM and 111 nM and 126 nM and 154 nM and 147 nM and 247 nM |  | <2.7e-06 cm/s | 12 ± 7 | 6 ± 2 |  | 56 ± 23 | 13.6 nM and 14.3 nM and 15.5 nM and 15.9 nM and 16.4 nM and 11.2 nM and 10.2 nM and 21.5 nM and 22 nM and 6 nM and 9.26 nM | 13 ± 5 |  |  |  | 77 ± 3 | 82 ± 4 |  |  |  | 
Cc1ncsc1-c1ccc([C@H](COCCCN2CCC(c3ccc4c(c3)n(C3CCCC3)c3nc(=O)c5c(Br)cccc5n43)CC2)NC(=O)[C@@H]2C[C@@H](O)CN2C(=O)[C@@H](NC(=O)C2(F)CC2)C(C)(C)C)cc1 [compound 27] | 193 ± 15 | 183 nM and 211 nM and 185 nM and 209 nM and 173 nM and 200 nM | 5 10-6 cm/s |  | 5 ± 2 | 2 ± 1 | 63.8 nM and 63.4 nM and 53.1 nM and 76.7 nM and 81.7 nM and 82 nM | 69 ± 12 | 29.5 nM and 30.9 nM and 30.6 nM and 24.4 nM and 46.9 nM and 21.2 nM and 34.9 nM and 23.9 nM | 29 ± 8 | 85 ± 3 | 70 ± 7 | 4.167 and 4 |  |  |  |  |  | 
Cc1ncsc1-c1ccc([C@H](COC(C)(C)CN2CCC(c3ccc4c(c3)n(C3CCCC3)c3nc(=O)c5c(Br)cccc5n43)CC2)NC(=O)[C@@H]2C[C@@H](O)CN2C(=O)[C@@H](NC(=O)C2(F)CC2)C(C)(C)C)cc1 [compound 28] | 240 ± 55 | 300 nM and 283 nM and 195 nM and 201 nM | 5 ± 2 10-6 cm/s |  | 17 ± 8 | 5 ± 2 | 99.7 nM and 76.7 nM and 88 nM and 49.7 nM | 76 ± 21 | 34 nM and 37.9 nM and 38.6 nM and 39.5 nM and 28.8 nM and 36.1 nM and 40.6 nM and 27.9 nM and 35.6 nM and 32 nM | 35 ± 4 | 76 ± 11 | 69 ± 4 |  |  |  | 37.037 and >37 | <7 10-6 cm/s | 11 ×10⁻⁶ cm/s and 13 ×10⁻⁶ cm/s | 14
Cc1ncsc1-c1ccc([C@H](CC[C@@H](C)CCN2CCC(c3ccc4c(c3)n(C3CCCC3)c3nc(=O)c5c(Br)cccc5n43)CC2)NC(=O)[C@@H]2C[C@@H](O)CN2C(=O)[C@@H](NC(=O)C2(F)CC2)C(C)(C)C)cc1 [compound 29] | 416 ± 177 | 272 nM and 625 nM and 423 nM | 2 ± 0.2 10-6 cm/s | 1.9e-06 cm/s and < 1.9e-06 cm/s and 2.4e-06 cm/s | 2 ± 1 | 1 ± 0.1 | 49.3 nM and 72.5 nM and 61.2 nM | 60 ± 12 | 29.4 nM and 32.4 nM and 32.3 nM and 32.6 nM | 32 ± 2 | 84 ± 4 | 74 ± 2 |  |  |  |  |  |  | 
